{"source": "patent EP0448765A1", "about": "“Use of guanidine derivatives for the manufacture of a medicament with NPY-antagonistic activity” (HEUMANN PHARMA GMBH & CO, priority 1990, dated 1991)", "data": [{"target": "T1, spezifischen NPY-Rezeptors (Homo sapiens, UniProt P25929)", "T1 construct": "intrazellulären Ca⁺⁺-Konzentration in HEL-Zellen (Human Erythroleukemia-Zellen) fluorimetrisch mit Fura-2 als Indikator gemessen; endogenous in cells; host or cells: HEL (human erythroleukemia) cells", "T1 sequence (P25929 1-384)": "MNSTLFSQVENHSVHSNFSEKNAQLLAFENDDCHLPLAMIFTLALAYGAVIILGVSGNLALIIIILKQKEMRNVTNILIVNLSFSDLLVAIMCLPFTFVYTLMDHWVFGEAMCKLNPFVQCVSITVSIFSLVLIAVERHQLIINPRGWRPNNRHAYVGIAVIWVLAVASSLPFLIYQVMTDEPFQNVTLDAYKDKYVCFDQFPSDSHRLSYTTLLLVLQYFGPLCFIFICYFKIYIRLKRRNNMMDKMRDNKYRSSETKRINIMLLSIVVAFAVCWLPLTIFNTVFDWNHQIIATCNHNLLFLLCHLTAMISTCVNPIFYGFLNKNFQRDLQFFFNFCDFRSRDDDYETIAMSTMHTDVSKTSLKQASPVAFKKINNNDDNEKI", "test": "Inhibition of the NPY-induced rise of intracellular Ca++ in HEL cells (fluorimetric, Fura-2; method of Motulsky and Michel)", "assay_type": "cell-based", "conditions": "HEL-Zellen, antagonists added at 10⁻⁴ bis 10⁻⁶ (unit inferred), Schild-Plot-Analyse, read-out: pA2 Hemmung des Ca^++-Anstieges (converted)", "description": "Die Neuropeptid-Y-antagonistische Wirkung der erfindungsgemäß verwendeten Verbindungen wurde anhand der Methode von Motulsky und Michel (Motulsky, H.J., Michel, M.C., Am. J. Physiol. 255, 880 (1988)) nachgewiesen.\nBei dieser Methode wird der durch NPY induzierte Anstieg der intrazellulären Ca⁺⁺-Konzentration in HEL-Zellen (Human Erythroleukemia-Zellen) fluorimetrisch mit Fura-2 als Indikator gemessen. Unter den gegebenen Bedingungen bewirkt NPY einen konzentrationsabhängigen Anstieg der intrazellulären Ca⁺⁺-Konzentration über die Stimulation des spezifischen NPY-Rezeptors.\nZur Messung der Hemmwirkung der zu testenden Antagonisten werden diese in Konzentrationen von 10⁻⁴ bis 10⁻⁶ dem Inkubationsmedium zugesetzt. Dann wird erneut eine NPY-Wirkungskurve bestimmt.\nDie erfindungsgemäß verwendeten Guanidinverbindungen verschieben die NPY-Konzentrationswirkungskurve nach rechts. Die Rechtsverschiebung ist nach Schild-Plot-Analyse kompetitiv. Die Substanzen antagonisieren demnach die NPY-Wirkung durch Konkurrenz am spezifischen NPY-Rezeptor.", "units": {"Kb": "µM"}, "values": [{"smiles": "N=C(NCCCc1c[nH]cn1)NCCOC(c1ccccc1)c1ccccc1", "note": "[Verbindung A, N¹-[3-(1H-Imidazol-4-yl)propyl]-N²-[2-(diphenylmethoxy)ethyl]-guanidin]", "Kb": 100}, {"smiles": "N=C(NCCCc1c[nH]cn1)NCCC(c1cc(F)cc(F)c1)c1ccccn1", "note": "(stereo not shown) [Verbindung B, N¹-[3-(3,5-Difluorphenyl)-3-(pyridin-2-yl)propyl]-N²-[3-(1H-imidazol-4-yl)propyl]-guanidin]", "Kb": 19.1}, {"smiles": "Cc1cc(Br)cnc1N(CCNC(=N)NCCCc1c[nH]cn1)Cc1ccccc1", "note": "[Verbindung C, N¹-[2-[N-(5-Brom-3-methyl-pyridin-2-yl)benzylamino]-ethyl]-N²-[3-(1H-imidazol-4-yl)propyl]-guanidin]", "Kb": 1.32}, {"smiles": "Cc1cc(Br)cnc1CCCCNC(=N)NCCCc1c[nH]cn1", "note": "[Verbindung D, N¹-[4-(5-Brom-3-methyl-pyridin-2-yl)butyl]-N²-[3-(1H-imidazol-4-yl)propyl]-guanidin]", "Kb": 9.12}]}]}
